{
  "source": "patent US20250221957A1",
  "about": "“PS[…] AND THEIR USE FOR TREATING […] AND NE[…] DISORDERS” (Transcend Therapeutics, Inc., priority 2021, published 2025)",
  "key": {"[1]": {"target": "T1, Human serotonin 5HT2B receptor (Homo sapiens, UniProt P41595)", "T1 construct": "host or cells: 5HT2B receptor expressing membranes", "T1 sequence (P41595 whole entry)": "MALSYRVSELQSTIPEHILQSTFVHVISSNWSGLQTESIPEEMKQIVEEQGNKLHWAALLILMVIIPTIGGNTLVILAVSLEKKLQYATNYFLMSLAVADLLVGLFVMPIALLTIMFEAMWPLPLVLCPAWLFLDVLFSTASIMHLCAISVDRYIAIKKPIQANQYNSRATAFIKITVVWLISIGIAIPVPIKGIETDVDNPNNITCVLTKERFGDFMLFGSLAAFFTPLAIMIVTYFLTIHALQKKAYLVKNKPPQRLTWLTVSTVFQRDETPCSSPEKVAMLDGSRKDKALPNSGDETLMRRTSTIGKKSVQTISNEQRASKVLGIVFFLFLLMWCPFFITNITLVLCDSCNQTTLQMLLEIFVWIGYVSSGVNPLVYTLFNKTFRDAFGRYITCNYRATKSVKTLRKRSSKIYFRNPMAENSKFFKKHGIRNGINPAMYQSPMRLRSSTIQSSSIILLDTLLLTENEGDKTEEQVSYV", "assay": "Competitive radioligand binding to 5HT2B receptor membrane preparations", "conditions": "ratio of Ki values", "method": "Human serotonin 5HT2B receptor membrane preparations were divided into aliquots. On the day of the assay, membranes were diluted at 1:200 in incubation buffer. […] To each well was added 150 μL membrane preparation, 50 μL test compound, non-specific compound, or buffer alone, as well as 50 μL radioligand. The plate was incubated at 35° C. for 90 minutes with gentle agitation. […] For each concentration of drug, non-specific binding was subtracted from total binding to give specific binding. […] Ki was subsequently calculated using the ChengPrusoff equation."}, "[2]": {"target": "T1, Human serotonin 5HT2B receptor", "conditions": "literature values; read-out: reported Ki; cited from earlier work"}, "Sprague Dawley rats [3]": {"test_system": "Sprague Dawley rats", "conditions": "cited from earlier work"}, "Sprague Dawley rats [4]": {"test_system": "Sprague Dawley rats", "assay": "Forced Swim Test (FST)", "type": "in vivo, rat", "conditions": "for reduction in immobility (magnitude of the effect): single dose 30 min before testing", "excerpt": "The Forced Swim Test (FST) is a classic, and the most used preclinical behavioral assay to screen compounds with antidepressant-like activity and has high predictive and face validity (Porsolt et al. (1977) Nature 266:730; Borsini and Meli (1988) Psychopharmacology 94:147). The premise of the FST is that when rats are placed into a cylinder filled with water, they will initially try to escape, but over time will become immobile. This increased immobility reflects behavioral despair, modeling a depressive-like state.\nAnimals: Male Sprague Dawley rats (Charles River Laboratories) weighing 180-200 g on arrival, were used for this study which took place at Melior Discovery (Exton, PA). Rats acclimated to their home cages for at least one week before testing, were maintained in a controlled environment on a 12 h light/dark cycle, with no more than 2 rats per cage. Animals received ad libitum access to food and water and were assigned randomly to treatment groups. Animal use and procedures were in accordance with established protocols approved by the IACUC committee, Melior Standard Operation Procedures (SOP), and Transcend Therapeutics.\nForced Swim Test (FST): In the FST trial, rats were be placed in a circular plexiglass container filled with water, with no means of escape. Water temperature was maintained at 22-25° C. and changed for every animal. After an acclimation period, rats were timed for inactivity (failure to struggle), activity, swim time and climbing time. Day 1 consisted of a 15 min acclimation trial, and Day 2 (24 h later) consisted of the 5 min test. A time sampling procedure was employed where animals were observed every 5 sec and scored for immobility, swimming, or climbing. Fluoxetine (10 mg/kg, IP, Sigma Aldrich) or 0.9% sterile saline vehicle (vehicle 3× group) were administered 23.5, 5, and 1 h before testing in the FST. […] The experimenter was blinded to treatment.\nStatistical Analysis: Data for each parameter of the test (immobility, swimming, or climbing) is expressed as the mean±SEM. Differences between groups were determined by one-way ANOVA and post-hoc Tukey's test with a p-value of less than 0.05 indicating statistically significant differences.\nForced Swim Test: In the FST trial, rats were be placed in a circular plexiglass container filled with water, with no means of escape. Water temperature was maintained at 22-25° C. and changed for every animal. After an acclimation period, rats were timed for inactivity (failure to struggle), activity, swim time and climbing time. Day 1 consisted of a 15 min acclimation trial, and Day 2 (24 h later) consisted of the 5 min test. A time sampling procedure was employed where animals were observed every 5 sec and scored for immobility, swimming, or climbing. Fluoxetine (10 mg/kg, IP, Sigma Aldrich) or 0.9% sterile saline vehicle (vehicle 3× group) were administered 23.5, 5, and 1 h before testing in the FST. 2C-B (2.5, 10, or 20 mg/kg, IP, Cayman Chemical) or 0.9% saline vehicle (vehicle 1× group) were administered 30 min prior to FST testing. The experimenter was blinded to treatment.\nDrug Treatment: Fluoxetine (10 mg/kg, IP, Sigma Aldrich) or 0.9% sterile saline vehicle were administered 23.5, 5, and 1 h before testing in the FST. […] Control animals received fluoxetine alone, methylone alone, or saline vehicle.\nForced Swim Test: In the FST trial, rats were be placed in a circular plexiglass container filled with water, with no means of escape. Water temperature was maintained at 22-25° C. and changed for every animal. After an acclimation period, rats were timed for inactivity (failure to struggle), activity, swim time and climbing time. The experimenter and scorer were blind to treatment group. Day 1 consisted of a 15 min acclimation trial, and Day 2 (24 h later) consisted of the 5 min test. A time sampling procedure was employed where animals were observed every 5 sec and scored for immobility, swimming, or climbing. […]"}, "mice [5]": {"test_system": "mice", "assay": "Fear extinction paradigm, mouse model of PTSD", "type": "in vivo", "conditions": "MBDB 5 mg/kg IP, day 2", "excerpt": "(FIG. 9A) Schematic of experimental design. A single CS-US (tone-shock) pairing on day 1 was followed by 6 CS presentations in a novel context (context B). […] On day 3, the time spent freezing to the CS was quantified. […] (FIG. 9C) No locomotor changes were observed on day 3 (t(26)=1.073, p>0.05). Data are mean +/− SEM.\nFIGS. 10A-10B: MBDB improves fear extinction in a mouse model of PTSD. A single CS-US (tone-shock) pairing on day 1 was followed by 6 conditioned stimulus (CS) presentations in a novel context (context B). MBDB or saline vehicle was injected 30 min prior to extinction training on day 2. The time spent freezing to the CS was quantified on […]. […] Data are mean +/− SEM. N=10 for MBDB group (5 mg/kg, IP) and N=16 for saline control group. **p<0.01 vs. vehicle control group.\nEffective PTSD treatments facilitate the disassociation between a traumatic memory and the patient's fear response, making cues for the traumatic memory evoke less of a fear response. This is modeled in the mouse fear extinction paradigm (see FIG. 9A) which takes place over 3 days. On day 1 (fear conditioning), mice are trained to acquire a “traumatic memory,” namely associating the conditioned stimulus (CS, tone) to the unconditioned stimulus (US, foot shock). On day 2 (extinction training), they are trained to forget the traumatic memory association by presenting the CS 6 times (with no US) in a novel environment. On day 3 (extinction recall), the mice are “asked” if that tone (CS) still elicits a fearful response, as measured by the time spent freezing when the tone is presented. Less time freezing means better extinction recall. Drugs that improve extinction recall reduce freezing time on day 3, and, therefore, show potential as a PTSD treatment."}, "[6]": {"test_system": "serotonergic terminals in the cortex and hippocampus", "conditions": "25 mg/kg IP every 12 hours for 4 days; 2 weeks post-treatment; cited from earlier work"}, "drug users / humans": {"test_system": "drug users / humans", "conditions": "cited from earlier work"}, "mice [7]": {"test_system": "mice", "conditions": "MDMA 7.5 mg/kg 30 minutes prior to extinction training (Young 2015); cited from earlier work"}, "[8]": {"conditions": "13 of 77 deaths, meta-analysis; cited from earlier work"}, "[9]": {"conditions": "depending on the animal model used and dosing conditions; cited from earlier work"}},
  "note": "Where two headings read alike, the source gives them in different places.",
  "data": [
    {"smiles": "CC(N)Cc1ccc2c(c1)OCO2", "note": "(centres unmarked) [MDA]", "values": [
      {"measurement": "greater affinity for the 5HT2B receptor compared with methylone", "setting": "[1]", "value": 37, "unit": "times"},
      {"measurement": "Ki", "setting": "[2]", "value": 100, "unit": "nM"}
    ]},
    {"smiles": "CCN(CC)C(=O)[C@@H]1C=C2c3cccc4[nH]cc(c34)C[C@H]2N(C)C1", "note": "[LSD, lysergic acid-N,N-diethylamide]", "values": [
      {"measurement": "reduction in immobility in the FST, previous reports", "setting": "Sprague Dawley rats [3]; literature (Hibicke 2020; Yang 2013; Tizabi 2012)", "value": 38, "unit": "%"}
    ]},
    {"smiles": "CCC(Cc1ccc2c(c1)OCO2)NC", "note": "(racemic) [MBDB, N-methyl-1-(1,3-benzodioxol-5-yl)-2-aminobutane]", "values": [
      {"measurement": "climbing", "setting": "Sprague Dawley rats [4]; MBDB IP 30 min before testing", "value": "significantly reduced only at the highest dose"},
      {"measurement": "swimming", "setting": "Sprague Dawley rats [4]; MBDB IP 30 min before testing", "value": "robustly increased at all doses tested"},
      {"measurement": "immobility", "setting": "Sprague Dawley rats [4]; MBDB IP 30 min before testing, all doses tested (15-30 mg/kg)", "value": "significantly reduced immobility"},
      {"measurement": "extinction acquisition on the first trial of extinction training", "setting": "mice [5]", "value": "improved extinction acquisition"},
      {"measurement": "locomotor activity", "setting": "mice [5]", "value": "small, but significant increase"},
      {"measurement": "serotonergic terminals destroyed in the cortex and hippocampus", "setting": "[6]", "value": "55-60%"},
      {"measurement": "adverse effects", "setting": "drug users / humans; self-administered MBDB under supervision, 100 to 300 mg", "value": "no serious adverse effects"}
    ]},
    {"smiles": "CNC(C)Cc1ccc2c(c1)OCO2", "note": "(centres unmarked) [MDMA, 3,4-Methylenedioxymethamphetamine]", "values": [
      {"measurement": "reduced freezing compared to saline injected controls (extinction recall)", "setting": "mice [7]", "value": 35, "unit": "%"},
      {"measurement": "blood concentration in deaths attributable to MDMA alone", "setting": "[8]", "value": "0.478 to 53.9", "unit": "mg/L"},
      {"measurement": "greater affinity for the 5HT2B receptor compared with methylone", "setting": "[1]", "value": 7.5, "unit": "times"},
      {"measurement": "half-life", "setting": "[9]", "value": "5 to 7", "unit": "h"},
      {"measurement": "reduction in immobility, reported", "setting": "Sprague Dawley rats [3]; MDMA 5 mg/kg, Flinders Sensitive Line rats (Majumder 2011)", "value": 45, "unit": "%"},
      {"measurement": "reduction in immobility, reported", "setting": "Sprague Dawley rats [3]; MDMA 5 mg/kg, Sprague Dawley rats (Majumder 2011)", "value": 45, "unit": "%"},
      {"measurement": "reduction in immobility, reported", "setting": "Sprague Dawley rats [3]; MDMA 10 mg/kg, Flinders Sensitive Line rats (Majumder 2011)", "value": 93, "unit": "%"},
      {"measurement": "reduction in immobility, reported", "setting": "Sprague Dawley rats [3]; MDMA 10 mg/kg, Sprague Dawley rats (Majumder 2011)", "value": 78, "unit": "%"}
    ]},
    {"smiles": "COc1cc(CCN)c(OC)cc1Br", "note": "[2C-B, 4-Bromo-2,5-dimethoxyphenethylamine]", "values": [
      {"measurement": "climbing", "setting": "Sprague Dawley rats [4]; 2C-B 2.5, 10, 20 mg/kg IP", "value": "significantly decreased only in the high-dose group"},
      {"measurement": "reduction in immobility (magnitude of the effect)", "setting": "Sprague Dawley rats [4]; 2C-B high-dose (20 mg/kg IP)", "value": 53, "unit": "%"},
      {"measurement": "reduction in immobility (magnitude of the effect)", "setting": "Sprague Dawley rats [4]; 2C-B mid-dose (10 mg/kg IP)", "value": 50, "unit": "%"},
      {"measurement": "swimming", "setting": "Sprague Dawley rats [4]; single dose of 2C-B 30 minutes before testing", "value": "significant increase in swimming"},
      {"measurement": "adverse effects", "setting": "drug users / humans; self-administered 2C-B, 10 to 20 mg, experienced drug users", "value": "no serious adverse effects"}
    ]},
    {"smiles": "CNCCC(Oc1ccc(C(F)(F)F)cc1)c1ccccc1", "note": "(centres unmarked) [fluoxetine, reference compound]", "values": [
      {"measurement": "swimming behavior", "setting": "Sprague Dawley rats [4]; Example 8", "value": "significantly increased swimming behavior"},
      {"measurement": "reduction in immobility", "setting": "Sprague Dawley rats [4]; fluoxetine 10 mg/kg IP at 23.5, 5 and 1 h before testing (Examples 6 and 7)", "value": 56, "unit": "%"},
      {"measurement": "reduced immobility compared to vehicle", "setting": "Sprague Dawley rats [4]; fluoxetine alone, 10 mg/kg IP x3 (Example 8)", "value": 60, "unit": "%"}
    ]}
  ]
}
